In brackets after ≈: the same amount, converted by molar mass. Read-outs that look alike come from different tables or passages of the source.
Legend:
[1] = Aqueous solubility of neutral form of drug (MFD or PBS solution, pH 6.5); assay type: physicochemical
Procedure: Solubility may be measured at 25° C. in water or a phosphate buffered saline (PBS) solution adjusted to a pH between 6 and 7.
An appropriate PBS solution is an aqueous solution comprising 20 mM sodium phosphate (Na2HPO4), 47 mM potassium phosphate (KH2PO4), 87 mM NaCl, and 0.2 mM KCl, adjusted to pH 6.5 with NaOH. An appropriate MFD solution is the same PBS solution wherein there is also present 7.3 mM sodium taurocholic acid and 1.4 mM of 1-palmitoyl-2-oleyl-sn-glycero-3-phosphocholine. In particular, a composition of the present invention may be dissolution-tested by adding it to MFD or PBS solution and agitating to promote dissolution.

[2] = Solubility in volatile organic solvents; assay type: physicochemical; conditions: for solubility: organic solvent or mixture
Text: The drug is poorly soluble in volatile organic solvents. By “volatile organic solvent” is meant a solvent selected from the group consisting of acetone, methanol, tetrahydrofuran, ethyl acetate, mixtures of any one of these with water, and mixtures of these with each other. […] As used herein, the solubility is assumed to be measured at ambient temperature and pressure.

Acidic pKa = assay type: physicochemical; conditions: for pKa: distilled water
Text: Here, the term pKa is used in its traditional form, the pKa being the negative logarithm of the acid ionization constant.

[3] = In vitro dissolution test of Drug 1 dispersions in MFD solution; assay type: physicochemical; conditions: 37° C.
Procedure: For these tests, suspensions were formed by adding a sufficient quantity of the dispersions of Example 1 or Example 2 to water containing 0.5 wt % Methocel Type A such that each suspension contained 7.2 mgA/mL Drug 1. Next, a 50 μL sample of each suspension was added to microcentrifuge tubes in duplicate. […] HPLC analysis was performed using an Zorbax RX-C18 4.6×75 mm […] column, with a mobile phase of 63/37 v/v aqueous 0.1 wt % trifluoroacetic acid/acetonitrile, and UV absorbance measured at 220 nm.
The concentrations of dissolved Drug 1 obtained in these samples were used to determine the maximum dissolved concentration of Drug 1 in solution during the first ninety minutes of the test (MDC90), the area under the concentration-versus-time curve during the initial ninety minutes (“AUC90”), and the concentration of Drug 1 at 1200 minutes (“C1200”).

[4] = In vitro dissolution test of Drug 3 dispersion in MFD solution; assay type: physicochemical; conditions: dissolved Drug 3, initial 90 min; MFD solution pH 6.5, 37° C., 200 μgA/mL dosed
[5] = dissolved Drug 3; dispersion pre-suspended in 0.5 wt % Methocel A + 15 mg/mL HPMCAS-HF in PBS, then MFD; 200 μgA/mL dosed; Control 3 as in Example 5 test
Procedure: The test was run in duplicate. The tubes were placed in a 37° C. temperature-controlled chamber, and 1.8 mL MFD solution at pH 6.5 and 290 mOsm/kg, was added to each respective tube. The samples were quickly mixed using a vortex mixer for about 60 seconds. The samples were centrifuged at 13,000 G at 37° C. for 1 minute. The resulting supernatant solution was then sampled and diluted 1:6 (by volume) with methanol and analyzed by high-performance liquid chromatography (HPLC). HPLC analysis was performed using a Waters Symmetry C8 column. The mobile phase consisted of 45% 20 mM KH2PO4, adjusted to pH 3, 30% acetonitrile, and 25% methanol. UV absorbance was measured at 270 nm. The contents of each tube were mixed on the vortex mixer and allowed to stand undisturbed at 37° C. until the next sample was taken. Samples were collected at 4, 10, 20, 40, 90, and 1200 minutes.
The solution was then analyzed for dissolved Drug 3 concentration versus time, as previously described.

[6] = In vitro dissolution test of Drug 2 dispersion in MFD solution; assay type: physicochemical; conditions: 37° C.
Procedure: Next, a 50 μL sample of this suspension was added to microcentrifuge tubes in duplicate. The tubes were placed in a 37° C. temperature-controlled chamber, and 1.75 mL MFD solution was added to each respective tube. […] The samples were quickly mixed using a vortex mixer for about 60 seconds. The samples were centrifuged at 13,000 G at 37° C. for 1 minute. The resulting supernatant solution was then sampled and diluted 1:6 (by volume) with methanol and then analyzed by high-performance liquid chromatography (HPLC). HPLC analysis was performed using an Agilent RX-C18 4.6×75 mm 3.5 μM column, with a mobile phase of 65/35 v/v 0.1 wt % trifluoroacetic acid/acetonitrile, and UV absorbance measured at 220 nm. The contents of each respective tube were mixed on the vortex mixer and allowed to stand undisturbed at 37° C. until the next sample was taken. Samples were collected at 4, 10, 20, 40, 90, and 1200 minutes.

Structure (SMILES)	solubility ([1]; fassif, MFD solution pH 6.5, read-out: solubility in a pH 6.5 MFD solution) [µg/mL]	solubility ([2]; acetone, read-out: solubility in acetone) [µg/mL]	solubility in methanol ([2]; crystalline neutral form, methanol)	solubility ([2]; methanol, read-out: solubility in methanol) [µg/mL]	pKa (Acidic pKa)	C1200 ([3]; Drug 1 concentration at 1200 minutes) [µg/mL]	MDC90 ([3]; dissolved Drug 1, first 90 min, 200 μgA/mL dosed) [µg/mL]	AUC90 ([3]; dissolved Drug 1, initial 90 min, 200 μgA/mL dosed) [µg·min/mL]	solubility ([1]; phosphate buffered saline, aqueous buffer, PBS pH 6.5, read-out: solubility in phosphate buffered saline solution at pH of 6.5) [µg/mL]	solubility ([2]; THF, 25° C., neutral form, read-out: solubility in THF at 25° C.) [µg/mL]	solubility ([2]; acetone, 25° C., neutral form, read-out: solubility in acetone at 25° C.) [µg/mL]	solubility ([2]; methanol, 25° C., neutral form, read-out: solubility in methanol at 25° C.) [µg/mL]	acidic pKa (Acidic pKa)	AUC90 [4] [min*μgA/mL]	MDC90 [4] [μgA/mL]	AUC90 [5] [min*μgA/mL]	MDC90 [5] [μgA/mL]	C1200 ([6]; Drug 2 concentration at 1200 minutes) [µg/mL]	AUC90 ([6]; dissolved Drug 2, initial 90 min, 200 μgA/mL dosed) [µg·min/mL]
Nc1nc(C(=O)NCC2CC2)nc2c1[nH]c(=O)n2Cc1ccccc1 [Drug 1, 6-amino-9-benzyl-8-oxo-8,9-dihydro-7H-purine-2-carboxylic acid cyclopropylmethyl-amide]	~3 (≈ 8.87 µM)	25 (≈ 73.9 µM)	about 0.059 mgA/mL	59 (≈ 174 µM)	7.3	<0.1	1	<88	–	–	–	–	–	–	–	–	–	–	–
Cc1c(S(=O)(=O)c2ccc(=O)[nH]n2)oc2ccc(Cl)cc12 [Drug 3, 6-(5-chloro-3-methyl-benzofuran-2-sulfonyl)-2H-pyridazin-3-one]	–	–	–	–	–	–	–	–	< 1	~12000 (≈ 37000 µM)	~4700 (≈ 14500 µM)	~1500 (≈ 4620 µM)	6.9	540	8	540	8	–	–
Nc1nc(C(F)(F)F)cc2c1[nH]c(=O)n2Cc1ccccc1 [Drug 2, 4-amino-1-benzyl-6-trifluoromethyl-1,3-dihydro-imidazo[4,5-c]pyridine-2-one]	–	–	–	–	11.3	–	–	–	–	–	–	–	–	–	–	–	–	1.0	44
